Data: ChEMBL document CHEMBL4052765, “Synthesis and antibacterial evaluation of novel 11-O-carbamoyl clarithromycin ketolides” (2017)
Converted amounts (≈) assume the structure as drawn.

Assays:
Type in all cases: functional
Streptococcus pyogenes [1] = assay: Antibacterial activity against erythromycin-resistant Streptococcus pyogenes R1 after 24 h by NCCLS broth microdilution method; conditions: R1, 24 h
Bacillus subtilis = assay: Antibacterial activity against penicillin-susceptible Bacillus subtilis ATCC 9372 after 24 h by NCCLS broth microdilution method; conditions: ATCC 9372, 24 h
Streptococcus pneumoniae [2] = assay: Antibacterial activity against erythromycin-resistant Streptococcus pneumoniae A22072 harboring mef gene after 24 h by NCCLS broth microdilution method; conditions: A22072, 24 h
Streptococcus pneumoniae [3] = assay: Antibacterial activity against erythromycin-resistant Streptococcus pneumoniae B1 harboring erm gene after 24 h by NCCLS broth microdilution method; conditions: B1, 24 h
Streptococcus pneumoniae [4] = assay: Antibacterial activity against erythromycin-resistant Streptococcus pneumoniae AB11 harboring harboring mef and erm gene after 24 h by NCCLS broth microdilution method; conditions: AB11, 24 h
Streptococcus pyogenes [5] = assay: Antibacterial activity against erythromycin-susceptible Streptococcus pyogenes after 24 h by NCCLS broth microdilution method
Staphylococcus aureus [6] = assay: Antibacterial activity against […] Staphylococcus aureus ATCC 29213 after 24 h by NCCLS broth microdilution method; conditions: ATCC 29213, 24 h
Pseudomonas aeruginosa = assay: Antibacterial activity against penicillin-susceptible Pseudomonas aeruginosa ATCC 27853 after 24 h by NCCLS broth microdilution method; conditions: ATCC 27853, 24 h
Staphylococcus aureus [7] = assay: Antibacterial activity against erythromycin-susceptible Staphylococcus aureus ATCC 25923 after 24 h by NCCLS broth microdilution method; conditions: ATCC 25923, 24 h
Streptococcus pneumoniae [8] = assay: Potency index, ratio of azithromycin MIC to compound MIC against erythromycin-resistant Streptococcus pneumoniae A22072
Escherichia coli = assay: Antibacterial activity against penicillin-susceptible Escherichia coli ATCC 25922 after 24 h by NCCLS broth microdilution method; conditions: ATCC 25922, 24 h

Row | SMILES | MIC (Streptococcus pyogenes [1]) [µg/mL] | MIC (Bacillus subtilis) [µg/mL] | MIC (Streptococcus pneumoniae [2]) [µg/mL] | MIC (Streptococcus pneumoniae [3]) [µg/mL] | MIC (Streptococcus pneumoniae [4]) [µg/mL] | MIC (Streptococcus pyogenes [5]) [µg/mL] | MIC (Staphylococcus aureus [6]) [µg/mL] | MIC (Pseudomonas aeruginosa) [µg/mL] | MIC (Staphylococcus aureus [7]) [µg/mL] | Ratio (Streptococcus pneumoniae [8]) | MIC (Escherichia coli) [µg/mL]
1 | CC[C@H]1OC(=O)[C@H](C)C(=O)[C@H](C)[C@@H](O[C@@H]2O[C@H](C)C[C@H](N(C)C)[C@H]2O)[C@](C)(OC)C[C@@H](C)C(=O)[C@H](C)[C@@H](OC(=O)NCCNC(=O)c2ccc(Cl)cc2)[C@]1(C)O | > 128 | 0.25 (≈ 0.308 µM) | 0.5 (≈ 0.615 µM) | 128 (≈ 158 µM) | 64 (≈ 78.8 µM) | 1 (≈ 1.23 µM) | 128 (≈ 158 µM) | 128 (≈ 158 µM) | 16 (≈ 19.7 µM) | 4 | > 128
2 | CC[C@H]1OC(=O)[C@H](C)C(=O)[C@H](C)[C@@H](O[C@@H]2O[C@H](C)C[C@H](N(C)C)[C@H]2O)[C@](C)(OC)C[C@@H](C)C(=O)[C@H](C)[C@@H](OC(=O)NCCNC(=O)/C=C/c2ccc(O)cc2)[C@]1(C)O | > 128 | 8 (≈ 9.76 µM) | 4 (≈ 4.88 µM) | 128 (≈ 156 µM) | 128 (≈ 156 µM) | 4 (≈ 4.88 µM) | 32 (≈ 39 µM) | 128 (≈ 156 µM) | 32 (≈ 39 µM) | – | > 128
3 | CC[C@H]1OC(=O)[C@H](C)C(=O)[C@H](C)[C@@H](O[C@@H]2O[C@H](C)C[C@H](N(C)C)[C@H]2O)[C@](C)(OC)C[C@@H](C)C(=O)[C@H](C)[C@@H](OC(=O)NCCNC(=O)/C=C/c2cccc3ccccc23)[C@]1(C)O | 128 (≈ 150 µM) | 2 (≈ 2.34 µM) | 2 (≈ 2.34 µM) | 128 (≈ 150 µM) | 128 (≈ 150 µM) | 1 (≈ 1.17 µM) | 32 (≈ 37.5 µM) | > 128 | 16 (≈ 18.7 µM) | – | 128 (≈ 150 µM)
4 | CC[C@H]1OC(=O)[C@H](C)C(=O)[C@H](C)[C@@H](O[C@@H]2O[C@H](C)C[C@H](N(C)C)[C@H]2O)[C@](C)(OC)C[C@@H](C)C(=O)[C@H](C)[C@@H](OC(=O)NCCNC(=O)/C=C/c2ccc(Cl)cc2Cl)[C@]1(C)O | 64 (≈ 73.3 µM) | 2 (≈ 2.29 µM) | 2 (≈ 2.29 µM) | 128 (≈ 147 µM) | 128 (≈ 147 µM) | 2 (≈ 2.29 µM) | 32 (≈ 36.7 µM) | > 128 | 8 (≈ 9.17 µM) | – | 128 (≈ 147 µM)
5 | CC[C@H]1OC(=O)[C@H](C)C(=O)[C@H](C)[C@@H](O[C@@H]2O[C@H](C)C[C@H](N(C)C)[C@H]2O)[C@](C)(OC)C[C@@H](C)C(=O)[C@H](C)[C@@H](OC(=O)NCCNC(=O)/C=C/c2ccccc2Cl)[C@]1(C)O | > 128 | 4 (≈ 4.77 µM) | 2 (≈ 2.39 µM) | 128 (≈ 153 µM) | 128 (≈ 153 µM) | 2 (≈ 2.39 µM) | 32 (≈ 38.2 µM) | > 128 | 32 (≈ 38.2 µM) | – | 128 (≈ 153 µM)
6 | CC[C@H]1OC(=O)[C@H](C)[C@@H](O[C@H]2C[C@@](C)(OC)[C@@H](O)[C@H](C)O2)[C@H](C)[C@@H](O[C@@H]2O[C@H](C)C[C@H](N(C)C)[C@H]2O)[C@](C)(O)C[C@@H](C)CN(C)[C@H](C)[C@@H](O)[C@]1(C)O [AZITHROMYCIN] | > 128 | 0.25 (≈ 0.334 µM) | 2 (≈ 2.67 µM) | > 128 | > 128 | 0.03 (≈ 0.0401 µM) | 8 (≈ 10.7 µM) | 16 (≈ 21.4 µM) | 0.25 (≈ 0.334 µM) | – | 16 (≈ 21.4 µM)
7 | CC[C@H]1OC(=O)[C@H](C)[C@@H](O[C@H]2C[C@@](C)(OC)[C@@H](O)[C@H](C)O2)[C@H](C)[C@@H](O[C@@H]2O[C@H](C)C[C@H](N(C)C)[C@H]2O)[C@](C)(OC)C[C@@H](C)C(=O)[C@H](C)[C@@H](O)[C@]1(C)O [CLARITHROMYCIN] | > 128 | 0.25 (≈ 0.334 µM) | 4 (≈ 5.35 µM) | > 128 | 128 (≈ 171 µM) | 0.03 (≈ 0.0401 µM) | 64 (≈ 85.6 µM) | 64 (≈ 85.6 µM) | 0.25 (≈ 0.334 µM) | – | 64 (≈ 85.6 µM)
